Test results from US9108950B2, “1-pyrazolyl-3-(4-((2-anilinopyrimidin-4-yl)oxy)napththalen-1-yl) ureas as p38 MAP kinase inhibitors” (Respivert Ltd., priority 2011, dated 2015).

Legend:
[1] = test system: LPS-induced neutrophil accumulation; assay: LPS-induced neutrophil accumulation in mice; format: in vivo, Balb/c mice
Protocol: […] At T=0, mice were placed into an exposure chamber and exposed to LPS (7.0 mL, 0.5 mg/mL solution in PBS) for 30 min). After a further 8 hr the animals were anesthetized, their tracheas cannulated and BALF extracted by infusing and then withdrawing from their lungs 1.0 mL of PBS via the tracheal catheter. Total and differential white cell counts in the BALF samples were measured using a Neubaur haemocytometer. Cytospin smears of the BALF samples were prepared by centrifugation at 200 rpm for 5 min at RT and stained using a DiffQuik stain system (Dade Behring). Cells were counted using oil immersion microscopy. Data for neutrophil numbers in BAL are shown as mean±S.E.M. (standard error of the mean). The percentage inhibition of neutrophil accumulation was calculated for each treatment relative to vehicle treatment.

[2] = Physical stability on storage (TGA, XRPD, IR, DSC, appearance); format: physicochemical; design: key to XRD / IR: Cryst.: crystalline; ~Ref: pattern identical with reference sample; conditions: for Appearance / IR / XRD / DSC max / TGA <100° C. weight loss / TGA <180° C. weight loss: form B micronized
Protocol: Patterns were obtained on a PANalytical (Philips) X'PertPRO MPD diffractometer equipped with a Cu LFF X-ray tube (45 kV; 40 mA; Bragg-Brentano; spinner stage) and were acquired using Cu Kα radiation under the following measurement conditions: scan mode: continuous; scan range: 3 to 50° 2θ; step size: 0.02°/step; counting time: 30 sec/step; spinner revolution time: 1 sec; incident beam path: program. divergence slit: 15 mm; Soller slit: 0.04 rad; beam mask: 15 mm; anti scatter slit: 1°; beam knife: +; Diffracted beam path: long anti scatter shield: +; Soller slit: 0.04 rad; Ni filter: +; detector: X'Celerator. Samples were prepared by spreading on a zero background sample holder.
Micro attenuated total reflectance (microATR) was used and the sample was analyzed using a suitable microATR accessory and the following measurement conditions: apparatus: Thermo Nexus 670 FTIR spectrometer; number of scans: 32; resolution: 1 cm^−1; wavelength range: 4000 to 400 cm^−1; detector: DTGS with KBr windows; beamsplitter: Ge on KBr; micro ATR accessory: Harrick Split Pea with Si crystal.
Data were collected on a TA-Instruments Q1000 MTDSC equipped with RCS cooling unit. Typically 3 mg of each compound, in a standard aluminium TA-Instrument sample pan, was heated at 10° C./min from 25 C to 300° C. A nitrogen purge at 50 mL/min was maintained over the sample.
Data were collected on a TA-Instruments Q500 thermogravimeter Typically 10 mg of each sample was transferred into a pre-weighed aluminium pan and was heated at 20° C./min from ambient temperature to 300° C. or […] unless otherwise stated.
Thermal analysis of Compound (I) as the anhydrous free base in crystalline polymorphic form B (micronized) was undertaken using TGA, DVS, XRPD analysis, IR spectroscopy and DSC as described in General Procedures. Where appropriate, a sample at ambient temperature and relative humidity (reference sample/“0 days”) was compared with samples stored at various temperatures and relative humidities (comparative samples).
The reference sample (t=0) and the comparative samples that were exposed prior to analysis to different storage conditions, were heated at a rate of 20° C./min from RT to 300° C. The TGA curve of the reference sample (t=0) is illustrated in FIG. 3 and the results for all samples are summarised below (Table 8). […] The weight loss that occurred above 180° C. was due to evaporation and decomposition of the product. Comparing this weight loss profile with those of the comparative samples in Table 8, no significant differences were observed.
The XPRD diffraction pattern of the reference sample (t=0) is illustrated in FIG. 2 and the IR trace is illustrated in FIG. 6. The diffraction pattern and IR trace were compared with those of the comparative samples (exposed to different storage conditions) and the results are summarised in Table 8. The diffraction patterns and IR traces were identical for all samples.
The reference sample (t=0) and comparative samples, previously exposed to different storage conditions, were heated at a rate of 10° C./min from 25° C. to 300° C. The DSC curve of the reference sample is illustrated in FIG. 7 and the results for all samples are summarised below (Table 8). From FIG. 7, it is evident that the reference sample melted with decomposition at 214.0° C.

Dynamic vapour sorption = format: physicochemical; conditions: form B micronized
Protocol: Plots were obtained using a Surface Measurement Systems dynamic vapor sorption model DVS-1 using about 10 mg of the sample. The weight change was recorded with respect to atmospheric humidity at 25° C. and was determined using the following parameters: drying: 60 min under dry nitrogen; equilibrium: 60 min/step; data interval: 0.05% or 2.0 min. The relative humidity [RH %] measurement points were as follows:
The DVS isotherm plot for the micronized reference sample is illustrated in FIG. 4 and the DVS change in mass plot for the micronized reference sample is illustrated in FIG. 5. […] The product adsorbed up to 0.4% moisture depending on the atmospheric humidity.

[3] = 0.05 mg/mL intra tracheal, 2 hr pre-dose

Compound: Cc1ccc(-n2nc(C(C)(C)C)cc2NC(=O)Nc2ccc(Oc3ccnc(Nc4ccccc4)n3)c3ccccc23)cc1 [Compound (I), 1-(3-(tert-Butyl)-1-(p-tolyl)-1H-pyrazol-5-yl)-3-(4-((2-(phenylamino)pyrimidin-4-yl)oxy)naphthalen-1-yl)urea]
- % inhibition of neutrophil accumulation [1, 3]: 18%
- Neutrophil numbers in BALF [1, 3]: 15.6 ± 2.1 ×10^5/mL
- % inhibition of neutrophil accumulation ([1]; 0.2 mg/mL, 2 hr pre-dose): 48%
- Neutrophil numbers in BALF ([1]; 0.2 mg/mL, 2 hr pre-dose): 9.8 ± 1.6 ×10^5/mL
- % inhibition of neutrophil accumulation ([1]; 1.0 mg/mL, 2 hr pre-dose): 77%
- Neutrophil numbers in BALF ([1]; 1.0 mg/mL, 2 hr pre-dose): 4.4 ± 0.89 ×10^5/mL
- % inhibition of neutrophil accumulation ([1]; 1.0 mg/mL, 8 hr pre-dose): 48%
- Neutrophil numbers in BALF ([1]; 1.0 mg/mL, 8 hr pre-dose): 9.9 ± 1.8 ×10^5/mL
- % inhibition of neutrophil accumulation ([1]; 1.0 mg/mL, 12 hr pre-dose): 4%
- Neutrophil numbers in BALF ([1]; 1.0 mg/mL, 12 hr pre-dose): 18.3 ± 2.3 ×10^5/mL
- duration of action (time course experiment) ([1]; mice): long duration of action
- effect on LPS-induced neutrophil accumulation ([1]; mice): dose dependent inhibition
- physical stability ([2]; form B): good physical stability
- Appearance ([2]; 1 week/70° C./75% RH): off-white
- IR ([2]; 1 week/70° C./75% RH): ~Ref
- XRD ([2]; 1 week/70° C./75% RH): ~Ref
- Appearance ([2]; 1 week/80° C.): off-white
- IR ([2]; 1 week/80° C.): ~Ref
- XRD ([2]; 1 week/80° C.): ~Ref
- Appearance ([2]; 4 weeks/40° C./75% RH): off-white
- DSC max ([2]; 4 weeks/40° C./75% RH): 214 °C
- IR ([2]; 4 weeks/40° C./75% RH): ~Ref
- TGA <100° C. weight loss ([2]; 4 weeks/40° C./75% RH): 0.8%
- TGA <180° C. weight loss ([2]; 4 weeks/40° C./75% RH): 0.3%
- XRD ([2]; 4 weeks/40° C./75% RH): ~Ref
- Appearance ([2]; 4 weeks/50° C.): off-white
- DSC max ([2]; 4 weeks/50° C.): 214 °C
- IR ([2]; 4 weeks/50° C.): ~Ref
- TGA <100° C. weight loss ([2]; 4 weeks/50° C.): 1.3%
- TGA <180° C. weight loss ([2]; 4 weeks/50° C.): 0.5%
- XRD ([2]; 4 weeks/50° C.): ~Ref
- Appearance ([2]; 4 weeks/RT/56% RH): off-white
- DSC max ([2]; 4 weeks/RT/56% RH): 214 °C
- IR ([2]; 4 weeks/RT/56% RH): ~Ref
- TGA <100° C. weight loss ([2]; 4 weeks/RT/56% RH): 0.5%
- TGA <180° C. weight loss ([2]; 4 weeks/RT/56% RH): 0.4%
- XRD ([2]; 4 weeks/RT/56% RH): ~Ref
- Appearance ([2]; 4 weeks/RT/75% RH): off-white
- DSC max ([2]; 4 weeks/RT/75% RH): 214 °C
- IR ([2]; 4 weeks/RT/75% RH): ~Ref
- TGA <100° C. weight loss ([2]; 4 weeks/RT/75% RH): 0.9%
- TGA <180° C. weight loss ([2]; 4 weeks/RT/75% RH): 0.5%
- XRD ([2]; 4 weeks/RT/75% RH): ~Ref
- Appearance ([2]; 4 weeks/RT/<5% RH): off-white
- DSC max ([2]; 4 weeks/RT/<5% RH): 214 °C
- IR ([2]; 4 weeks/RT/<5% RH): ~Ref
- TGA <100° C. weight loss ([2]; 4 weeks/RT/<5% RH): 0.8%
- TGA <180° C. weight loss ([2]; 4 weeks/RT/<5% RH): 0.5%
- XRD ([2]; 4 weeks/RT/<5% RH): ~Ref
- Appearance ([2]; T = zero): off-white
- DSC max ([2]; T = zero): 214 °C
- IR ([2]; T = zero): Cryst.
- TGA <180° C. weight loss ([2]; T = zero): 0.6%
- XRD ([2]; T = zero): Cryst.
- hygroscopic behavior (DVS) (Dynamic vapour sorption): no hygroscopic behavior
- moisture adsorbed (DVS) (Dynamic vapour sorption; depending on atmospheric humidity, 25° C.): up to 0.4%
